Patent publication US10183082B2, “PET probes of radiofluorinated carboximidamides for IDO-targeted imaging” (H. LEE MOFFITT CANCER CENTER AND RESEARCH INSTITUTE, INC., priority 2014, dated 2019)

Legend:
Hela cells = test: alamarBlue cell proliferation (cytotoxicity) assay, Hela; format: cell-based; conditions: 100 nM, 2 days incubation
Experimental: (§1) FIGS. 6A-6C. Cell viability study of HuMEC cells, MCA-MB-231 cells, and Hela cells, respectively, incubated with 100 nM of IDO inhibitors. After 2 days of incubation, alamarBlue cell viability reagent was added to cells and the fluorescence intensity (arbitrary fluorescent units) was measured after 3 hours incubation (n=4). Cytotoxicity of four IDO inhibitors toward different cell lines was evaluated with a cell proliferation assay using alamarBlue cell viability reagent. Hela cells were cultured in EMEM medium (ATCC 30-2003) containing 10% FBS, MDA-MB-231 and MCF-7 were cultured in RPMI-1640 Medium containing 10% FBS, while HuMEC cells were cultured in HuMEC medium (ATCC 12752-010). The cell proliferation assay included the following: harvesting of the cells by trypsinization and adding culture media to adjust to 10000 cell/mL; add 0.2 mL of cell suspension to each well and incubated at 37° C. in 5% CO2 atmosphere for 2 days; adding 1 μL of inhibitor solution (0.1 mM in DMSO) into growth media (1 mL) to get growth media w/inhibitor; aspirating spent growth medium from the wells and adding 200 μL of growth media w/ inhibitors and incubating at 37° C. in 5% CO2 atmosphere for 2 days; adding 20 μL of the alamarBlue (Invitrogen) into each well; incubating for addition 3 hours at 37° C. in 5% CO2 atmosphere; and reading the fluorescence intensity of each well with a plate reader (excitation, 544 nm; Emission 595 nm). The fluorescent signal is linear to the number of living cells.

MDA-MB-231 cells = test: alamarBlue cell proliferation (cytotoxicity) assay, MDA-MB-231; format: cell-based; conditions: 100 nM, 2 days incubation
Experimental: as §1

HuMEC cells = test: alamarBlue cell proliferation (cytotoxicity) assay, HuMEC; format: cell-based; conditions: 100 nM, 2 days incubation
Experimental: as §1

MCF-7 cells = test: alamarBlue cell proliferation (cytotoxicity) assay, MCF-7; format: cell-based; conditions: 100 nM, 2 days incubation
Experimental: as §1

IDO = IDO (Homo sapiens, UniProt P14902); test: Inhibition of IFN-γ induced IDO activity in Hela cells; format: cell-based; conditions: Hela cell lines (FIGS. 7A, 7B)
IDO, sequence (P14902 whole entry): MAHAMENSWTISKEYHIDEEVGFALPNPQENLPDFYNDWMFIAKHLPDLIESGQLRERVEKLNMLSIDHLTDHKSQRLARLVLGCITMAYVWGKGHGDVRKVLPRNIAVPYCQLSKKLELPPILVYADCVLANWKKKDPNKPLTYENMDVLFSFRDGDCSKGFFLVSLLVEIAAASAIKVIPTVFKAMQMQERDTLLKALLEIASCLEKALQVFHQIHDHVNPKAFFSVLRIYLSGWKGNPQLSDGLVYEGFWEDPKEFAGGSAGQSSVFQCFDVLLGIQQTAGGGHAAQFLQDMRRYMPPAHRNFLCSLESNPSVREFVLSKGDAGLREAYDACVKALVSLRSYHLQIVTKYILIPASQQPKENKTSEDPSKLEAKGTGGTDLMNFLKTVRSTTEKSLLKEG

[1] = via oral administration; cited from earlier work
tumor IDO expression = target: T1, tumor IDO expression (Mus musculus, UniProt P28776); test: microPET/CT imaging of CLL mouse model versus wild-type mouse; format: in vivo; conditions: imaged 1 hour after i.p. injection of the probe; CLL tumor mice vs wild-type mice
T1 construct: from tissue; host or cells: living CLL tumor mice (whole-animal microPET/CT)
T1 sequence (P28776 whole entry): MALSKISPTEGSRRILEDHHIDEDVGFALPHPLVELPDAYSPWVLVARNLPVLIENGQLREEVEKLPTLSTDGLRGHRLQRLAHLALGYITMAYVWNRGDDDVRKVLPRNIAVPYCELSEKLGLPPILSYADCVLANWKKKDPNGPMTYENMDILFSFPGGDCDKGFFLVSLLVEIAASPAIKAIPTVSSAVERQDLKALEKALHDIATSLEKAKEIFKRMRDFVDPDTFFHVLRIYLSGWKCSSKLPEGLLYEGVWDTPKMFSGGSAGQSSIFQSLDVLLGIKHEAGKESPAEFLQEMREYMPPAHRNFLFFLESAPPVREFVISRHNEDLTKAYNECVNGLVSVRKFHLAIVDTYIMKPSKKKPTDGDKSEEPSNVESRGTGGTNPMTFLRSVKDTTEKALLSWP
Experimental: Mice were imaged 1 hour after i.p. injection of the probe.

SMILES | Inhibition of IDO activity (IDO) | Cytotoxicity (Hela cells) | Cytotoxicity (MDA-MB-231 cells) | Cytotoxicity (HuMEC cells) | Cytotoxicity (MCF-7 cells) | t½ (clearance rate) [1] | microPET/CT detection of tumor IDO expression (tumor IDO expression)
ON=C(Nc1ccc(F)c(Cl)c1)c1nonc1NCCF [IDO4-9] | inhibited | no cytotoxicity | no cytotoxicity | no cytotoxicity | no cytotoxicity | – | –
Nc1nonc1C(=NO)Nc1ccc(F)c(Cl)c1 [IDO5L, 4-Amino-N-(3-chloro-4-fluorophenyl)-N′-hydroxy-1,2,5-oxadiazole-3-carboximidamide] | inhibited | no cytotoxicity | no cytotoxicity | no cytotoxicity | no cytotoxicity | < 30 min | –
Nc1nonc1/C(=N/O)Nc1ccc([18F])c(Cl)c1 [^18F-IDO5L, [18F] 4-amino-N-(3-chloro-4-fluorophenyl)-N′-hydroxy-1,2,5-oxadiazole-3-carboximidamide] | – | – | – | – | – | – | distinguishes IDO-positive chronic lymphocytic leukemia (CLL) mouse model and wild-type mouse in vivo

Now from value to compound, other results behind:

Inhibition of IDO activity (IDO) | SMILES | Cytotoxicity (Hela cells) | Cytotoxicity (MDA-MB-231 cells) | Cytotoxicity (HuMEC cells) | Cytotoxicity (MCF-7 cells) | t½ (clearance rate) [1] | microPET/CT detection of tumor IDO expression (tumor IDO expression)
inhibited | O=C(Cc1ccc(F)cc1)Nc1nonc1/C(=N/O)Nc1ccc(F)c(Cl)c1 [IDO5] | – | – | – | – | – | –
inhibited | O=C(Nc1nonc1/C(=N/O)Nc1ccc(F)c(Cl)c1)c1ccc(F)cc1 [IDO6] | no cytotoxicity | no cytotoxicity | no cytotoxicity | no cytotoxicity | – | –
inhibited | O/N=C(\Nc1ccc(F)c(Cl)c1)c1nonc1NCCO/N=C\c1ccc(F)cc1 [IDO7] | – | – | – | – | – | –
